Measured values reported in patent US20150119363A1, “METHODS OF TREATING BACTERIAL INFECTIONS” (Rampex Pharmaceuticals, Inc., priority 2012, published 2015).

Experiments:
[1] = system: K. pneumoniae KP1081 (NDM-1, CMY-6, SHV-11, CTX-M-15, TEM-1); test: Aztreonam/Tigemonam MIC at various concentrations of BLI; assay type: cell-based; settings: Klebsiella pneumoniae, read-out: Aztreonam MIC (μg/ml) in the presence of BLI
Protocol: MIC values for each bacterial strain were measured for each antimicrobial compound at various concentrations of each BLI.

[2] = system: E. coli EC1061 (NDM-1 CMY-6); test: as above; assay type: cell-based; settings: Escherichia coli, read-out: Aztreonam MIC (μg/ml) in the presence of BLI
Protocol: MIC values for each bacterial strain were measured for each antimicrobial compound at various concentrations of each BLI. […]

EC1007 KPC-3 = test: Dose titration biapenem potentiation assay (MPC1); assay type: cell-based, Escherichia coli; settings: biapenem 1 μg/mL
Protocol: (§1) The potency and spectrum of β-lactamase inhibitors is also determined by assessing their biapenem potentiation activity in a dose titration potentiation assay using strains expressing serine carbapemenases (such as KPC). The potentiation effect is observed as the ability of BLI compounds to inhibit growth in the presence of sub-inhibitory concentration of biapenem. […] Biapenem is present in the test medium at 1 μg/mL. Compounds tested at the highest concentration of 40 μg/mL. […] Table 5 summarizes BLI potency of biapenem potentiation (MPC1). Biapenem MIC for each strain is also shown.

ECL1004 NMC-A = test: Dose titration biapenem potentiation assay (MPC1); assay type: cell-based, Enterobacter cloacae; settings: biapenem 1 μg/mL
Protocol: as §1

KP1004 KPC-2 = test: Dose titration biapenem potentiation assay (MPC1); assay type: cell-based, Klebsiella pneumoniae; settings: biapenem 1 μg/mL
Protocol: as §1

KP1008 KPC-2 = test: Dose titration biapenem potentiation assay (MPC1); assay type: cell-based, Klebsiella pneumoniae; settings: biapenem 1 μg/mL
Protocol: as §1

MIC [1] [µg/mL]	MIC [2] [µg/mL]	Structure (SMILES)	BPM MPC1 EC1007 KPC-3 (EC1007 KPC-3)	BPM MPC1 ECL1004 NMC-A (ECL1004 NMC-A)	BPM MPC1 KP1004 KPC-2 (KP1004 KPC-2)	BPM MPC1 KP1008 KPC-2 (KP1008 KPC-2)
256	16	C[C@H]1[C@H](NC(=O)/C(=N\OC(C)(C)C(=O)O)c2csc(N)n2)C(=O)N1S(=O)(=O)O [Aztreonam, reference compound]	–	–	–	–
–	–	NC1(CC(=O)N[C@H]2CC[C@@H](CC(=O)O)OB2O)CCCCC1 [Compound 51, 2-((3R,6S)-3-(2-(1-aminocyclohexyl)acetamido)-2-hydroxy-1,2-oxaborinan-6-yl)acetic acid]	X (X = MPC1 of less than 1 μg/mL.)	Y (Y = MPC1 of 1 μg/mL to 5 μg/mL.)	X (X = MPC1 of less than 1 μg/mL.)	X (X = MPC1 of less than 1 μg/mL.)
–	–	O=C(O)C[C@@H]1CC[C@H](NC(=O)C[C@H]2CCCCN2)B(O)O1 [Compound 52, 2-((3R,6S)-2-hydroxy-3-(2-((R)-piperidin-2-yl)acetamido)-1,2-oxaborinan-6-yl)acetic acid]	X (X = MPC1 of less than 1 μg/mL.)	Y (Y = MPC1 of 1 μg/mL to 5 μg/mL.)	X (X = MPC1 of less than 1 μg/mL.)	X (X = MPC1 of less than 1 μg/mL.)
–	–	O=C(O)C[C@@H]1CC[C@H](NC(=O)C[C@@H]2CCCCN2)B(O)O1 [Compound 53, 2-((3R,6S)-2-hydroxy-3-(2-((S)-piperidin-2-yl)acetamido)-1,2-oxaborinan-6-yl)acetic acid]	X (X = MPC1 of less than 1 μg/mL.)	Y (Y = MPC1 of 1 μg/mL to 5 μg/mL.)	X (X = MPC1 of less than 1 μg/mL.)	X (X = MPC1 of less than 1 μg/mL.)
–	–	O=C(O)C[C@@H]1CC[C@H](NC(=O)Cn2ccnc2-c2ccccc2)B(O)O1 [Compound 54, 2-((3R,6S)-2-hydroxy-3-(2-(2-phenyl-1H-imidazol-1-yl)acetamido)-1,2-oxaborinan-6-yl)acetic acid]	X (X = MPC1 of less than 1 μg/mL.)	X (X = MPC1 of less than 1 μg/mL.)	X (X = MPC1 of less than 1 μg/mL.)	X (X = MPC1 of less than 1 μg/mL.)
–	–	Cc1nc2ccccc2n1CCC(=O)N[C@H]1CC[C@@H](CC(=O)O)OB1O [Compound 55]	X (X = MPC1 of less than 1 μg/mL.)	X (X = MPC1 of less than 1 μg/mL.)	X (X = MPC1 of less than 1 μg/mL.)	X (X = MPC1 of less than 1 μg/mL.)
–	–	O=C(O)C[C@@H]1CC[C@H](NC(=O)c2ccc(Cn3cnnn3)cc2)B(O)O1 [Compound 56, 2-((3R,6S)-3-(4-((1H-tetrazol-1-yl)methyl)benzamido)-2-hydroxy-1,2-oxaborinan-6-yl)acetic acid]	X (X = MPC1 of less than 1 μg/mL.)	X (X = MPC1 of less than 1 μg/mL.)	X (X = MPC1 of less than 1 μg/mL.)	X (X = MPC1 of less than 1 μg/mL.)
–	–	O=C(O)C[C@@H]1CC[C@H](NC(=O)Cc2ccccn2)B(O)O1 [Compound 57, 2-((3R,6S)-2-hydroxy-3-(2-(pyridin-2-yl)acetamido)-1,2-oxaborinan-6-yl)acetic acid]	X (X = MPC1 of less than 1 μg/mL.)	X (X = MPC1 of less than 1 μg/mL.)	X (X = MPC1 of less than 1 μg/mL.)	X (X = MPC1 of less than 1 μg/mL.)
–	–	C[C@]1(Cn2ccnn2)[C@H](C(=O)N[C@H]2CC[C@@H](CC(=O)O)OB2O)N2C(=O)C[C@H]2S1(=O)=O [Compound 59, 2-[(3R,6S)-2-hydroxy-3-[(2S,3S,5R)-3-methyl-4,4,7-trioxo-3-(1H-1,2,3-triazol-1-ylmethyl)-4λ^6-thia-1-azabicyclo[3.2.0]heptane-2-amido]-1,2-oxaborinan-6-yl]acetic acid]	X (X = MPC1 of less than 1 μg/mL.)	X (X = MPC1 of less than 1 μg/mL.)	Y (Y = MPC1 of 1 μg/mL to 5 μg/mL.)	X (X = MPC1 of less than 1 μg/mL.)
–	–	O=C(O)C[C@@H]1CC[C@H](NC(=O)CCc2nnc(-c3ccccc3)o2)B(O)O1 [Compound 60, 2-((3R,6S)-2-hydroxy-3-(3-(5-phenyl-1,3,4-oxadiazol-2-yl)propanamido)-1,2-oxaborinan-6-yl)acetic acid]	X (X = MPC1 of less than 1 μg/mL.)	X (X = MPC1 of less than 1 μg/mL.)	X (X = MPC1 of less than 1 μg/mL.)	X (X = MPC1 of less than 1 μg/mL.)
–	–	Nc1nc(/C(=N/OCc2cc(=O)c(O)cn2O)C(=O)N[C@H]2CC[C@@H](CC(=O)O)OB2O)cs1 [Compound 62, 2-((3R)-3-((Z)-2-(2-aminothiazol-4-yl)-2-((1,5-dihydroxy-4-oxo-1,4-dihydropyridin-2-yl)methoxyimino)acetamido)-2-hydroxy-1,2-oxaborinan-6-yl)acetic acid]	X (X = MPC1 of less than 1 μg/mL.)	X (X = MPC1 of less than 1 μg/mL.)	X (X = MPC1 of less than 1 μg/mL.)	X (X = MPC1 of less than 1 μg/mL.)
–	–	O=C(O)CC1CCC[C@H](NC(=O)Cc2cccs2)B(O)O1 (stereo partly drawn) [Compound 63, 2-((3R)-2-hydroxy-3-(2-(thiophen-2-yl)acetamido)-1,2-oxaborepan-7-yl)acetic acid]	Y (Y = MPC1 of 1 μg/mL to 5 μg/mL.)	Y (Y = MPC1 of 1 μg/mL to 5 μg/mL.)	Y (Y = MPC1 of 1 μg/mL to 5 μg/mL.)	X (X = MPC1 of less than 1 μg/mL.)
–	–	O=C(O)CC1C=CC[C@H](NC(=O)Cc2cccs2)B(O)O1 (stereo partly drawn) [Compound 64, 2-((3R)-2-hydroxy-3-(2-(thiophen-2-yl)acetamido)-2,3,4,7-tetrahydro-1,2-oxaborepin-7-yl)acetic acid]	X (X = MPC1 of less than 1 μg/mL.)	X (X = MPC1 of less than 1 μg/mL.)	Y (Y = MPC1 of 1 μg/mL to 5 μg/mL.)	X (X = MPC1 of less than 1 μg/mL.)
–	–	CCOC(=O)C[C@@H]1CC[C@H](NC(=O)Cc2cccs2)B(O)O1 [Compound 65, ethyl 2-((3R,6S)-2-hydroxy-3-(2-(thiophen-2-yl)acetamido)-1,2-oxaborinan-6-yl)acetate]	Y (Y = MPC1 of 1 μg/mL to 5 μg/mL.)	Z (Z = MPC1 of greater than 5 μg/mL.)	Y (Y = MPC1 of 1 μg/mL to 5 μg/mL.)	X (X = MPC1 of less than 1 μg/mL.)
–	–	O=C(O)C[C@@H]1CC[C@H](NC(=O)Cc2cc(F)cc(F)c2)B(O)O1 [Compound 66, 2-((3R,6S)-3-(2-(3,5-difluorophenyl)acetamido)-2-hydroxy-1,2-oxaborinan-6-yl)acetic acid]	X (X = MPC1 of less than 1 μg/mL.)	X (X = MPC1 of less than 1 μg/mL.)	X (X = MPC1 of less than 1 μg/mL.)	X (X = MPC1 of less than 1 μg/mL.)
